Values quoted from earlier work, collected in EP4527389A1 (Laboratorios Farmacéuticos Rovi S.A., priority 2022, dated 2023).

How the values were obtained:
[1] = target: CYP2D6 (cytochrome P450 2D6) enzyme (Homo sapiens, UniProt P10635); conditions: three categories: strong, moderate, weak
[2] = daily paroxetine 20 mg in patients stabilized on risperidone (4 to 8 mg/day)

Sequence of CYP2D6 (cytochrome P450 2D6) enzyme (P10635 whole entry): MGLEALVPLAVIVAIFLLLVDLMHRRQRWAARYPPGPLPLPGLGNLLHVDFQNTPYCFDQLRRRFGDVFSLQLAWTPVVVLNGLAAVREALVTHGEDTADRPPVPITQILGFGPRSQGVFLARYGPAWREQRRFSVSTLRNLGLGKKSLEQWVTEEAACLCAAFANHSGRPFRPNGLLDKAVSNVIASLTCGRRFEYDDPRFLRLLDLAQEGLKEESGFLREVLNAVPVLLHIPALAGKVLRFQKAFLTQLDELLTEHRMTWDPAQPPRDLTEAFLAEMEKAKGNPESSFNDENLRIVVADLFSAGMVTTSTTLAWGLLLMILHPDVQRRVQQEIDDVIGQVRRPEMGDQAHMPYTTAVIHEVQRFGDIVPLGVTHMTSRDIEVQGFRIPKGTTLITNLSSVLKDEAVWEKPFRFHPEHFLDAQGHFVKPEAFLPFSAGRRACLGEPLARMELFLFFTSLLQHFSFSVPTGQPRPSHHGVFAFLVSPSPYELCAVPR

SMILES | CYP2D6 enzyme inhibitor category [1] | further results
C[C@]12CC[C@H](O)CC1=CC[C@@H]1[C@@H]2CC[C@]2(C)C(c3cccnc3)=CC[C@@H]12 [abiraterone] | moderate inhibitor | –
Cc1ccc(-c2cc(C(F)(F)F)nn2-c2ccc(S(N)(=O)=O)cc2)cc1 [celecoxib] | weak inhibitor | –
CN/C(=N/CCSCc1nc[nH]c1C)NC#N [cimetidine] | weak inhibitor | –
C[C@@H](NCCCc1cccc(C(F)(F)F)c1)c1cccc2ccccc12 [cinacalcet] | moderate inhibitor | –
CN1C(=O)CC(=O)N(c2ccccc2)c2cc(Cl)ccc21 [clobazam] | weak inhibitor | –
CC(C)c1nc(CN(C)C(=O)N[C@@H](CCN2CCOCC2)C(=O)N[C@H](CC[C@H](Cc2ccccc2)NC(=O)OCc2cncs2)Cc2ccccc2)cs1 [cobicistat] | weak inhibitor | –
CN(C)CCC[C@@]1(c2ccc(F)cc2)OCc2cc(C#N)ccc21 [escitalopram] | weak inhibitor | –
CC(CCc1ccccc1)NCC(O)c1ccc(O)c(C(N)=O)c1 (stereo not drawn) [labetalol] | weak inhibitor | –
C[C@H]1CNCCc2ccc(Cl)cc21 [lorcaserin] | moderate inhibitor | –
Nc1nc(CC(=O)Nc2ccc(CCNC[C@H](O)c3ccccc3)cc2)cs1 [mirabegron] | moderate inhibitor | –
Fc1ccc([C@@H]2CCNC[C@H]2COc2ccc3c(c2)OCO3)cc1 [paroxetine] | strong inhibitor | decrease of 9-hydroxyrisperidone concentrations [2]: approximately 10%; increase of concentrations of the active moiety (the sum of risperidone plus 9-hydroxyrisperidone) [2]: approximately 1.4 fold; increase of mean plasma concentrations of risperidone [2]: approximately 4 fold
C=C[C@H]1C[N@@]2CC[C@H]1C[C@@H]2[C@@H](O)c1ccnc2ccc(OC)cc12 [quinidine] | strong inhibitor | –
CN[C@H]1CC[C@@H](c2ccc(Cl)c(Cl)c2)c2ccccc21 [sertraline] | weak inhibitor | –
CN(C/C=C/C#CC(C)(C)C)Cc1cccc2ccccc12 [terbinafine] | strong inhibitor | –
CCCS(=O)(=O)Nc1ccc(F)c(C(=O)c2c[nH]c3ncc(-c4ccc(Cl)cc4)cc23)c1F [vemurafenib] | weak inhibitor | –
